Holding throughout (type): ADME, organism-based
A short description of series [1]: Half life in Sprague-Dawley rat at 1 mg/kg, iv measured upto 24 hrs by LC-MS/MS analysis. The note with it: in vivo.
The nature of series [2]: Half life in Sprague-Dawley rat at 10 mg/kg, po measured upto 24 hrs by LC-MS/MS analysis. Particulars: in vivo.
A short description of series [3]: Apparent volume of distribution in Sprague-Dawley rat at 10 mg/kg, po measured upto 24 hrs by LC-MS/MS analysis. The note with it: in vivo.
Series [4] in a line: Oral bioavailability in Sprague-Dawley rat at 10 mg/kg measured upto 24 hrs by LC-MS/MS analysis. The note with it: in vivo.
Series [5] is described as follows: Apparent volume of distribution in Sprague-Dawley rat at 1 mg/kg, iv measured upto 24 hrs by LC-MS/MS analysis. The note with it: in vivo, read-out: Vz.
A short description of series [6]: Cmax in Sprague-Dawley rat at 1 mg/kg, iv measured upto 24 hrs by LC-MS/MS analysis. The note with it: in vivo.
Series [7] is described as follows: Apparent clearance in Sprague-Dawley rat at 10 mg/kg, po measured upto 24 hrs by LC-MS/MS analysis. The note with it: in vivo, read-out: CL(app) (converted).
The nature of series [8]: AUC(0 to infinity) in Sprague-Dawley rat at 1 mg/kg, iv measured upto 24 hrs by LC-MS/MS analysis. The note with it: in vivo.
Series [9] in a line: Cmax in Sprague-Dawley rat at 10 mg/kg, po measured upto 24 hrs by LC-MS/MS analysis. The note with it: in vivo.
Series [10] in a line: AUC(0 to infinity) in Sprague-Dawley rat at 10 mg/kg, po measured upto 24 hrs by LC-MS/MS analysis. The note with it: in vivo.
Series [11] is described as follows: Apparent clearance in Sprague-Dawley rat at 1 mg/kg, iv measured upto 24 hrs by LC-MS/MS analysis. The note with it: in vivo, read-out: CL(app) (converted).

Turning to `COc1cccc(C(=O)Nc2cccc(Sc3ccc4c(NC(C)=O)n[nH]c4c3)c2)c1`, the half-life in series [1] is 16.8 min; in [2], 47.4 min. The Vz in series [3] is 39.752 L/kg. In [4], this molecule showed a bioavailability of 15%. Also, the Vd in series [5] was 2.16 L/kg. Also, the figures for the Cmax in series [6] and in series [9] were 689 ng/mL and 113 ng/mL, respectively. Besides, the CL/F in series [7] is 657 mL/min/kg. The figures for the area under the curve AUC(0-inf) in series [8] and in [10] were 175 ng·h/mL and 274 ng·h/mL, respectively. Moreover, in series [11], the clearance was 96 mL/min/kg.

The values above are taken from ChEMBL document CHEMBL5620352, “Discovery of highly potent and selective VEGFR2 kinase inhibitors for the treatment of rheumatoid arthritis” (Eur J Med Chem, 2023).
